This is an account of results in ChEMBL document CHEMBL5154787 (J Med Chem, 2022).

Series [1] addresses AP2-associated protein kinase 1 (Mus musculus, UniProt Q3UHJ0). Kind of series: Displacement of 3H-LP-927443 from AAK1 in C57BL6 mouse brain homogenate assessed as inhibition constant incubated for 1 hr by liquid scintillation counter analysis. It counts as tissue-based.
The target of series [2] is T1, AP2-associated protein kinase 1 (Homo sapiens, UniProt Q2M2I8). Kind of series: Inhibition of full length human AAK1 expressed in HEK293F cells assessed as suppression of AP2 phosphorylation measured after 3 hrs by Western blot analysis based cellular assay. The format is cell-based. A general note: Immunoblotting shows a protein as a band on a membrane.
T1 sequence (Q2M2I8 whole entry): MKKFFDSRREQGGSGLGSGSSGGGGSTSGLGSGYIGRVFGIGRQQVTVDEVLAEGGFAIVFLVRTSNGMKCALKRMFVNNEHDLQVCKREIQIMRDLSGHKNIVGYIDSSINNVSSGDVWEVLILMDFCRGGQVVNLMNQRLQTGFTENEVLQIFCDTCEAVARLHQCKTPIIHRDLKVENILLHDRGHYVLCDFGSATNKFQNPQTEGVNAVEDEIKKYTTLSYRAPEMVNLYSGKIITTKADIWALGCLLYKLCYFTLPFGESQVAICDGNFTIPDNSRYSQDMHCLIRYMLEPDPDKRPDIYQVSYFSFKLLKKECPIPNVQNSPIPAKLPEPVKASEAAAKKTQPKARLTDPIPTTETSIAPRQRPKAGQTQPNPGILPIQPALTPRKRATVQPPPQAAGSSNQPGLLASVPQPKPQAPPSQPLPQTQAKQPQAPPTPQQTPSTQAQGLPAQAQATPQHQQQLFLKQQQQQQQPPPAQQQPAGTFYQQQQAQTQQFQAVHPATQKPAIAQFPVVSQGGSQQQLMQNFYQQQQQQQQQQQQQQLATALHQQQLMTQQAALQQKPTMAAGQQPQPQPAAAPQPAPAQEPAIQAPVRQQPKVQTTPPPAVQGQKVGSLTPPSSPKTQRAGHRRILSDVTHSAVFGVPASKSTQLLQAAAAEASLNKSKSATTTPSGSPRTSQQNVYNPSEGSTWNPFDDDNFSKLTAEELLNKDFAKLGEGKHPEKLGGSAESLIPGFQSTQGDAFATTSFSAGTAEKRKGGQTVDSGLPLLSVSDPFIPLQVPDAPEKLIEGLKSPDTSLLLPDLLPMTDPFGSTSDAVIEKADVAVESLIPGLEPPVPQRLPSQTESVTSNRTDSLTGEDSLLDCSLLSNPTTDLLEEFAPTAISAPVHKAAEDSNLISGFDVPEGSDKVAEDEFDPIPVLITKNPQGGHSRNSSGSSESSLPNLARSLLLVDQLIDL
The target of a further series is Cytochrome P450 3A4 (Homo sapiens, UniProt P08684). Kind of series: Inhibition of CYP3A4 (unknown origin) incubated for 10 mins in presence of NADPH by LC-MS/MS analysis. It counts as ADME.
Sequence of Cytochrome P450 3A4 (P08684 whole entry): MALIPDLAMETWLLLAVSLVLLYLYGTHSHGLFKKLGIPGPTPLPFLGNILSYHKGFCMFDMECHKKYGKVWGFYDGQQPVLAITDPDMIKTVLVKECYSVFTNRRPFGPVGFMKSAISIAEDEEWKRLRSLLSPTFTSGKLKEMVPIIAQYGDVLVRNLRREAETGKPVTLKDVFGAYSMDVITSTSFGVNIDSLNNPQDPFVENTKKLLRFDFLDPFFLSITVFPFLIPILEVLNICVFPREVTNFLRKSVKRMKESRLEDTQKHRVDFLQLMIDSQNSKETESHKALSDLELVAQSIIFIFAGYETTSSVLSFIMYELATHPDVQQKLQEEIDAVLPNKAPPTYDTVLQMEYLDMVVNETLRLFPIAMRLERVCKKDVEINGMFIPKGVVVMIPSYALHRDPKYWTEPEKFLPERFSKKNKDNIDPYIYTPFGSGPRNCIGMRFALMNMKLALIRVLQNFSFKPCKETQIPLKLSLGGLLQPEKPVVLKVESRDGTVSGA
Series [3] can be described thus: Metabolic stability in rat liver microsomes assessed as parent compound remaining at 0.5 uM incubated for 10 mins in presence of NADPH by LC-MS/MS analysis. The format is ADME, Microsome. To be noted: read-out: Stability. (Liver microsomes are a subcellular fraction often used to study metabolism.)
In series [4] the target is T1, AP2-associated protein kinase 1. Kind of series: Inhibition of bacterially expressed GST-Xa-tagged human AAK1 using 5-FAM-labelled Aha-KEEQSQITSQVTGQIGWR-NH2 peptide as substrate incubated for 3 hrs in presence of ATP by electrophoretic analysis.
Series [5] in a line: Metabolic stability in mouse liver microsomes assessed as parent compound remaining at 0.5 uM incubated for 10 mins in presence of NADPH by LC-MS/MS analysis. To be noted: liver microsomes, read-out: Stability. It counts as ADME, Microsome.
Series [6] is described as follows: Metabolic stability in human liver microsomes assessed as parent compound remaining at 0.5 uM incubated for 10 mins in presence of NADPH by LC-MS/MS analysis. The format is ADME, Microsome. To be noted: read-out: Stability.

Sequence of AP2-associated protein kinase 1 (Mus musculus, UniProt Q3UHJ0) (Q3UHJ0 whole entry): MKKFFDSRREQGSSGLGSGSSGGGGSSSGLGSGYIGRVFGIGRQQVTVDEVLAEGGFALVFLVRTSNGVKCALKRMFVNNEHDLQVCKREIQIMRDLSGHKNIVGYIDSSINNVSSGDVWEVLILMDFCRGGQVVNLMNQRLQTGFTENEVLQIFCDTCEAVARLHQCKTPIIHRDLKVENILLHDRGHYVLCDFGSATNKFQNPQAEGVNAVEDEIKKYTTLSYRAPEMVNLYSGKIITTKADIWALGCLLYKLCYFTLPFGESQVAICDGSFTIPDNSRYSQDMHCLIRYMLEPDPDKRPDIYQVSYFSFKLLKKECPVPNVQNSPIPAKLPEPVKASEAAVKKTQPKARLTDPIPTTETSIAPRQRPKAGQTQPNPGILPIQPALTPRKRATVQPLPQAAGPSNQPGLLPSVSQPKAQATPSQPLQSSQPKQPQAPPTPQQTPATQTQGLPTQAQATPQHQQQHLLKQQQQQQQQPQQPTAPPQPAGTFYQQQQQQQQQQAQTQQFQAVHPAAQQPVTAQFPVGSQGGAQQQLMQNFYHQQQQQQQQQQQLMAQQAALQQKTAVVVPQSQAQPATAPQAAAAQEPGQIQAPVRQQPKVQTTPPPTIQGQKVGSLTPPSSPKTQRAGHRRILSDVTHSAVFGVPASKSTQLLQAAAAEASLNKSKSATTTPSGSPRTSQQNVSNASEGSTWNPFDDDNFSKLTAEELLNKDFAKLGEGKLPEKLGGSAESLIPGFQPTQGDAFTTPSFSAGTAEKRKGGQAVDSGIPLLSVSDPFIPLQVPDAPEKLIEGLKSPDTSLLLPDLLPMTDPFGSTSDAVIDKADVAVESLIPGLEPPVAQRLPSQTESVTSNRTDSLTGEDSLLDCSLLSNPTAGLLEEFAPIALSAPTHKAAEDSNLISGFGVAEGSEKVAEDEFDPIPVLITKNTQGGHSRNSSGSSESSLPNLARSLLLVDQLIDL

Consider `CC(=O)Nc1cc(-c2ccc(OC[C@@H](N)CC(C)C)c(C)c2)ccn1`, for which the Ki in series [1] came to 0.08 nM. Besides, the concentration for half-maximal inhibition (IC50) in series [2] was determined as 1.1 nM; on Cytochrome P450 3A4, 3900 nM; in series [4], 0.4 nM. The results for the remaining at 10 min, 0.5 µM in series [3], in series [5] and in series [6] were 99%, 64% and 91%, respectively.

As for `CC(C)C[C@H](N)COc1ccc(-c2ccnc(NCc3ccccc3)c2)cc1`, in series [4], the half-maximal inhibitory concentration (IC50) came to 127 nM.

Consider `CC(=O)Nc1cc(-c2cc(F)c(OC[C@@H](N)CC(C)C)c(C(F)(F)F)c2)ccn1`, for which the Ki in series [1] was found to be 1.5 nM. The IC50 in series [2] was found to be 4.8 nM; on Cytochrome P450 3A4, 470 nM; in series [4], 5 nM. Besides, the remaining at 10 min, 0.5 µM in series [3] is 91%; in series [5] it was 69%; in series [6] it was 74%.

Consider `CC(C)C[C@](C)(N)COc1cnc(-c2ccnc(Cl)c2)cc1Cl`, for which, at Cytochrome P450 3A4, the half-maximal inhibitory concentration (IC50) is greater than 20000 nM. Besides, the remaining at 10 min, 0.5 µM was 98% in series [3], 92% in series [5] and 86% in series [6].

Turning to `COC(=O)Nc1cc(-c2cc(OC)c(OC[C@@](C)(N)CC(C)C)cn2)ccn1`, the values for the IC50 (on Cytochrome P450 3A4; in series [4]) were greater than 20000 nM and 3.5 nM, respectively. In addition, the remaining at 10 min, 0.5 µM in series [3] was 96%; in series [5], 100%; in series [6] it was 91%.

Turning to `COC(=O)Nc1cc(-c2cc(Cl)c(OC[C@@](C)(N)CC(C)C)cn2)ccn1`, in series [1], the Ki is 0.11 nM. In addition, the IC50 at Cytochrome P450 3A4 was greater than 20000 nM; in series [4], 1.1 nM. The values for the remaining at 10 min, 0.5 µM in series [3], in series [5] and in series [6] were 99%, 87% and 96%, respectively.

With `COC(=O)Nc1cc(-c2ccc(OC[C@@](C)(N)CC(C)C)c(F)c2)ccn1`, the Ki in series [1] came to 0.2 nM. In addition, the IC50 was greater than 20000 nM on Cytochrome P450 3A4 and 1.1 nM in series [4]. Besides, the remaining at 10 min, 0.5 µM turned out to be 94% in series [3], 71% in series [5] and 82% in series [6].

With `Cc1cc(-c2cc(C(F)(F)F)c(OC[C@@](C)(N)CC(C)C)cn2)ccn1`, the IC50 at Cytochrome P450 3A4 was greater than 20000 nM; in series [4], 1.2 nM. For the same compound, the remaining at 10 min, 0.5 µM in series [3] was 75%; in series [5] it was 65%; in series [6], 90%.

As for `CC(=O)Nc1cc(-c2ccc(OC[C@@](C)(N)CC(C)C)c(OC(F)(F)F)c2)ccn1`, in series [1], the Ki was 0.07 nM. For the same compound, the figures for the IC50 (in series [2]; at Cytochrome P450 3A4; in series [4]) were 1.6 nM, 9500 nM and 0.8 nM, respectively. The remaining at 10 min, 0.5 µM came to 87% in series [3], 27% in series [5] and 54% in series [6].

For the compound `COC(=O)Nc1cc(-c2cc(C(F)(F)F)c(OC[C@@](C)(N)CC(C)C)cn2)ccn1`, the IC50 in series [2] was 0.4 nM; at Cytochrome P450 3A4, 5300 nM; in series [4], 0.4 nM. Also, the remaining at 10 min, 0.5 µM in series [3] turned out to be 79%; in series [5], 78%; in series [6] it was 80%.

On to `CC(=O)Nc1cc(-c2ccc(OC[C@@H](N)CC(C)C)c(OC(F)(F)F)c2)ccn1`, for which the Ki in series [1] amounted to 0.04 nM. For the same compound, the IC50 is 0.45 nM in series [2], 230 nM on Cytochrome P450 3A4 and 0.5 nM in series [4]. For the same compound, the remaining at 10 min, 0.5 µM in series [3] amounted to 80%; in series [5], 35%; in series [6] it was 91%.

With `COC(=O)Nc1cc(-c2ccc(OC[C@@H](N)CC(C)C)c(-c3ccno3)c2)ccn1`, in series [1], the Ki is 0.08 nM. Besides, the IC50 in series [2] is 4.1 nM; on Cytochrome P450 3A4, 180 nM; in series [4], 0.8 nM. Moreover, the results for the remaining at 10 min, 0.5 µM in series [3], in series [5] and in series [6] were 76%, 53% and 91%, respectively.

Turning to `Cc1cc(-c2cc(C)c(OC[C@@](C)(N)CC(C)C)cn2)ccn1`, the inhibition constant Ki in series [1] was 4.7 nM. Further, the remaining at 10 min, 0.5 µM in series [3] worked out at 72%; in series [5], 72%; in series [6], 79%. Further, the IC50 in series [4] turned out to be 19 nM.

For `COC(=O)Nc1cc(-c2cnc(OC[C@@](C)(N)CC(C)C)cc2C)ccn1`, the Ki in series [1] is 41 nM. Besides, the IC50 at Cytochrome P450 3A4 was greater than 20000 nM; in series [4], 490 nM. In addition, the remaining at 10 min, 0.5 µM in series [3] worked out at 87%; in series [5], 69%; in series [6] it was 98%.

In the case of `CC(=O)Nc1cc(-c2ccc(OC[C@@](C)(N)CC(C)C)c(C(F)(F)F)c2)ccn1`, the Ki in series [1] was 0.04 nM. Moreover, the IC50 in series [2] was determined as 0.4 nM; on Cytochrome P450 3A4, 14000 nM; in series [4], 0.4 nM. Also, the remaining at 10 min, 0.5 µM in series [3] was determined as 90%; in series [5], 54%; in series [6], 66%.

In the case of `CC(=O)Nc1cc(-c2ccc(OC[C@@H](N)CC(C)C)c(C(F)(F)F)c2)ccn1`, the Ki in series [1] stood at 0.04 nM. Moreover, the half-inhibitory concentration (IC50) in series [2] was found to be 0.75 nM; on Cytochrome P450 3A4 it was 330 nM; in series [4], 0.4 nM. Also, the remaining at 10 min, 0.5 µM is 82% in series [3], 53% in series [5] and 91% in series [6].

For the compound `CC(=O)Nc1cc(-c2ccc(OC[C@@H](N)CC(C)C)c(Cl)c2)ccn1`, the inhibition constant Ki in series [1] was found to be 0.06 nM. The IC50 turned out to be 0.2 nM in series [2], 2600 nM on Cytochrome P450 3A4 and 0.5 nM in series [4]. Further, the remaining at 10 min, 0.5 µM is 100% in series [3], 86% in series [5] and 89% in series [6].

Take `CC(=O)Nc1cc(-c2cc(F)c(OC[C@@H](N)CC(C)C)cc2F)ccn1`: the Ki in series [1] turned out to be 0.6 nM. The results for the IC50 (in series [2]; at Cytochrome P450 3A4; in series [4]) were 6.7 nM, 7000 nM and 1.3 nM, respectively. In addition, the remaining at 10 min, 0.5 µM in series [3] was determined as 90%; in series [5] it was 70%; in series [6] it was 78%.

On to `CC(=O)Nc1cc(-c2cc(F)c(OC[C@@H](N)CC(C)C)c(Cl)c2)ccn1`, for which the Ki in series [1] was 2.5 nM. Also, the IC50 in series [2] is 6.8 nM; on Cytochrome P450 3A4, 800 nM. Besides, the remaining at 10 min, 0.5 µM in series [3] is 97%; in series [5], 75%; in series [6] it was 94%.

With `CC(=O)Nc1cc(-c2ccc(OC[C@@H](N)CC(C)C)cc2)ccn1`, the Ki in series [1] was 0.9 nM. Moreover, the IC50 in series [2] came out at 8.1 nM; in series [4], 4.6 nM.

Regarding `CC(C)C[C@H](N)COc1ccc(-c2ccnc(N)c2)cc1`, the Ki in series [1] was determined as 13 nM. For the same compound, the IC50 in series [4] came out at 21 nM.

Consider `CC(=O)Nc1cc(-c2cc(F)c(OC[C@@H](N)CC(C)C)c(F)c2)ccn1`, for which the Ki in series [1] was 27 nM. The 50% inhibitory concentration (IC50) at Cytochrome P450 3A4 was determined as 1300 nM. In addition, the remaining at 10 min, 0.5 µM was found to be 100% in series [3], 90% in series [5] and 90% in series [6].

As for `COC(=O)Nc1cc(-c2ccc(OC[C@@](C)(N)CC(C)C)c(CO)c2)ccn1`, the Ki in series [1] was determined as 0.63 nM. The IC50 in series [2] is 3.9 nM; on Cytochrome P450 3A4, greater than 20000 nM. Besides, the remaining at 10 min, 0.5 µM came out at 100% in series [3], 95% in series [5] and 91% in series [6].

For the compound `COC(=O)Nc1cc(-c2ccc(OC[C@@](C)(N)CC(C)C)nc2)ccn1`, the Ki in series [1] turned out to be 4.9 nM. Moreover, the IC50 at Cytochrome P450 3A4 was greater than 20000 nM; in series [4] it was 28 nM. In addition, the figures for the remaining at 10 min, 0.5 µM in series [3], in series [5] and in series [6] were 96%, 79% and 100%, respectively.

Regarding `COC(=O)Nc1cc(-c2cc(C(F)F)c(OC[C@@](C)(N)CC(C)C)cn2)ccn1`, in series [1], the inhibition constant (Ki) was found to be 0.07 nM. The IC50 on Cytochrome P450 3A4 is greater than 20000 nM; in series [4] it was 0.4 nM. The results for the remaining at 10 min, 0.5 µM in series [3], in series [5] and in series [6] were 87%, 63% and 79%, respectively.

On to `CC(=O)Nc1cc(-c2ccc(OC[C@@](C)(N)CC(C)C)c(C(F)F)c2)ccn1`, for which, in series [1], the Ki came out at 0.05 nM. For the same compound, the IC50 in series [2] was 0.5 nM; in series [4], 0.6 nM. Moreover, the remaining at 10 min, 0.5 µM is 84% in series [3], 57% in series [5] and 74% in series [6].

Consider `COC(=O)Nc1cc(-c2ccc(OC[C@@H](N)CC(C)C)c(F)c2)ccn1`, for which the IC50 was 2100 nM at Cytochrome P450 3A4 and 1.2 nM in series [4]. The figures for the remaining at 10 min, 0.5 µM in series [3], in series [5] and in series [6] were 84%, 80% and 92%, respectively.

As for `COC(=O)Nc1cc(-c2ccc(OC[C@@](C)(N)CC(C)C)cn2)ccn1` (racemic), in series [1], the Ki stood at 18 nM. The IC50 on Cytochrome P450 3A4 was greater than 20000 nM; in series [4], 23 nM. The results for the remaining at 10 min, 0.5 µM in series [3], in series [5] and in series [6] were 100%, 93% and 93%, respectively.

Consider `COC(=O)Nc1cc(-c2ccc(OC[C@@](C)(N)CC(C)C)c(C)c2C)ccn1` (racemic), for which, in series [1], the Ki is 0.26 nM. Further, the IC50 in series [2] worked out at 9.7 nM; in series [4], 4.5 nM. For the same compound, the results for the remaining at 10 min, 0.5 µM in series [3], in series [5] and in series [6] were 83%, 70% and 93%, respectively.

For orientation: Ki means a measure of affinity in units of concentration, obtained from inhibition or displacement. The IC50 is the point on the concentration scale where inhibition reaches its midpoint.
